Columns and labels:
[1] = assay type: physicochemical; details: classified from Log P
From the text: As used herein, a “partition coefficient” is defined as the ratio of concentrations of an un-ionized compound between solutions of water and octanol. To measure the partition coefficient of ionizable solutes, the pH of the aqueous phase is adjusted such that the predominant form of the compound is un-ionized. The logarithm of the ratio of the concentrations of the un-ionized solute in the solvents is referred to herein as log P or log K ow.
As noted herein, the octanol-water partition coefficient may be used to identify the cuticular penetration of a particular active ingredient. One factor in the relative speed through which any insecticide acts is the insecticide's ability to cross the insect cuticle. A determining factor for cuticle penetration is Log K ow, also known as Log P. Log K ow (Log P) is the octanol-water partition coefficient for a neutral molecule. Log P is used hereinfurther, but, as noted above, the term is synonymous with Log K ow. As previously noted, the cuticular penetration of any particular active ingredient as against a plant cuticle is not indicative of that same active ingredient's ability to penetrate an insect cuticle.
The cuticular penetration of a compound is classified as “INTERMEDIATE” when the Log P value is between about 2.0 and about 4.0.

[2] = test system: Argentine ant, Linepithema humile; assay: Knockdown/mortality of ant workers under continuous exposure on treated glazed tile
Outline: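 0.5% AI imidacloprid in acetone, alone or with 0.1, 1.0 or 5.0% additive (benzenepropanoic acid, oleic acid, methyl oleate, methyl linoleate, methyl palmitate or BHA), 1 ml dried overnight on glazed tile (~161 cm^2). Ten workers confined under continuous exposure, water from 3 h; knockdown/mortality scored at intervals and 24 h; ≥3 replicates.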

[3] = test system: Culex quinquefasciatus mosquito; assay: USDA Petri Dish Method, 3 min exposure to treated glazed tile (twenty 4-6 day old females); assay type: in vivo; details: fipronil 0.01% AI with or without adjuvant
Procedure: MATERIALS AND METHODS: Solutions of resmethrin at 1 and 0.5% AI were prepared with and without adjuvant in acetone. […] USDA Petri Dish Method was used as initial screening protocol. Twenty, 4-6 day old female Culex quinquefasciatus mosquitoes were exposed to each treatment for 3 minutes and then moved to a clean untreated white paper index card. Treatments were replicated a minimum of three times. Mosquito knockdown was evaluated at 3 minute intervals for the first 15 minutes and then at 5 minute intervals for the remainder of an hour. A small cotton ball soaked in sucrose solution was added on the screen top of the petri-dish as a drinking source after the 2 hour evaluation. Mortality was evaluated at 24 hours after exposure.
Treatments were allowed to dry overnight. USDA Petri Dish Method was used as initial screening protocol. Twenty, 4-6 day old female Culex mosquitoes were exposed to each treatment for 3 minutes and then moved to a clean untreated white paper index card. Treatments were replicated a minimum of three times. Mosquito knockdown was evaluated at various intervals through 3 hours after exposure. A small cotton ball soaked in sucrose solution was added on the screen top of the petri-dish as a drinking source. Mortality was evaluated at 24 hours after exposure.
Treatments were allowed to dry overnight. USDA Petri Dish Method was used as initial screening protocol. Twenty, 4-6 day old female Culex quinquefasciatus mosquitoes were exposed to each treatment for 3 minutes and then moved to a clean untreated white paper index card. Treatments were replicated a minimum of three times. Mosquito knockdown was evaluated at various intervals through 2 hours after exposure. A small cotton ball soaked in sucrose solution was then added on the screen top of the petri-dish as a drinking source. Mortality was evaluated at 24 hours after exposure.
Treatments were allowed to dry overnight. USDA Petri Dish Method was used as initial screening protocol. Twenty, 4-6 day old female Culex quinquefasciatus mosquitoes were exposed to each treatment for 3 minutes and then moved to a clean untreated white paper index card. Treatments were replicated a minimum of three times. Mosquito knockdown was evaluated at various hourly intervals. A small cotton ball soaked in sucrose solution was added on the screen top of the petri-dish as a drinking source after 2 hours. Mortality was evaluated at 24 hours after exposure.

[4] = test system: Odorous House ant, Tapinoma sessile; assay: Knockdown/mortality of ant workers under continuous exposure on treated glazed tile; assay type: in vivo; details: fipronil 0.001% (FIG. 45); ethiprole 0.01% (FIG. 53); with or without adjuvant
From the text: Actual coverage was about 5″×5″ (or 161 cm2) for easy handling. Treatments were allowed to dry overnight. […] Treatments were replicated minimum three times.
(§1) Treatments were allowed to dry overnight. […] Treatments were replicated minimum three times.
(§2) Treatments were allowed to dry overnight. […] Treatments were replicated a minimum of three times.
Treatments were allowed to dry overnight. […] Treatments were replicated minimum of three times. […] The results are shown in FIG. 84 (No adjuvant alone treatment was performed).

[5] = test system: Red Imported Fire ant (RIFA), Solenopsis invicta; assay: as above; assay type: in vivo; details: fipronil 0.01% AI with or without adjuvant
From the text: as §1, §2

[6] = test system: susceptible/normal German cockroach (Monheim strain), Blattella germanica; assay: Knockdown/mortality of male cockroaches under continuous exposure on treated glazed tile; assay type: in vivo; details: fipronil 0.001% (FIG. 48); ethiprole 0.01% (FIG. 55); with or without adjuvant
Procedure: Treatments were allowed to dry overnight. […] Treatments were replicated a minimum of three times. […]
Treatments were allowed to dry overnight. […] Treatments were replicated a minimum of three times. Cockroach knockdown/mortality was evaluated at 5 minute intervals for the first 60 minutes after exposure and then at 2, 18 and 24 hours.

[7] = octanol-water partition coefficient (Log K ow), Table 1; cited from earlier work
[8] = test system: Musca domestica, susceptible strain WHO(N); assay: Topical insecticide application to houseflies; assay type: in vivo; details: 0.5 μl per fly, % a.i. conc. in acetone, Table 95
Procedure: Male Musca domestica, susceptible strain WHO(N), or other strains were used.
The flies were anaesthetized with CO2, and ten individuals were positioned (on their back) on a filter paper which was on the top of a carbon dioxide emitting device. […]
Afterwards the insects were transferred into a beaker closed by a gauze lid with a water saturated cotton pad on the top.
At regular intervals, mortality was recorded (cumulatively).

Aedes aegypti mosquito = assay: USDA Petri Dish Method, 3 min exposure to treated glazed tile; assay type: in vivo; details: Aedes aegypti, glazed tile, 3 min exposure
Outline: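 USDA Petri Dish screen: groups of twenty female Aedes aegypti (4-6 days old) held 3 minutes on dried acetone-based treatments (with/without adjuvant), then transferred to untreated card. Replicated three or more times; knockdown followed over time, mortality recorded 24 hours post-exposure with sucrose-soaked cotton available.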

Molecule | Likelihood of Direct Insect Cuticular Penetration [1] | Log P [7] | also measured
N#Cc1nn(-c2c(Cl)cc(C(F)(F)F)cc2Cl)c(N)c1[S+]([O-])C(F)(F)F (single isomer, unassigned) [fipronil, reference compound] | Fast (classified as “FAST” when it has a Log P value of about >4.0) | 4.0 | time at which 100% mortality was seen ([2]; fipronil 0.001% with or without adjuvant (FIG. 43)): around 25 hours; mortality at 24 hours (FIG. 44) [3]: around 50%; time at which 100% mortality was observed [4]: 25 h; time to a relatively high percentage of mortality (around 80%) [5]: around 20 hours; mortality at 25 hours [6]: around 40%
CC1(C)[C@H](C(=O)O[C@H](C#N)c2cccc(Oc3ccccc3)c2)[C@@H]1C=C(Br)Br [0.00064% DTM] |  |  | % Mortality after ([8]; 15′): 100%; % Mortality after ([8]; 30′): 100%; % Mortality after ([8]; 1 h): 100%; % Mortality after ([8]; 2 h): 100%; % Mortality after ([8]; 4 h): 100%; % Mortality after ([8]; 1 d): 80%
CC1(C)C(C=C(Br)Br)C1C(=O)OC(C#N)c1cccc(Oc2ccccc2)c1 (stereo not drawn) [0.000128% DTM] |  |  | % Mortality after ([8]; 15′): 20%; % Mortality after ([8]; 30′): 50%; % Mortality after ([8]; 1 h): 70%; % Mortality after ([8]; 2 h): 70%; % Mortality after ([8]; 4 h): 80%; % Mortality after ([8]; 1 d): 50%
CC1(C)[C@H](C(=O)O[C@H](C#N)c2cccc(Oc3ccccc3)c2)[C@@H]1C=C(Br)Br [0.0000256% DTM] |  |  | % Mortality after ([8]; 15′): 10%; % Mortality after ([8]; 30′): 20%; % Mortality after ([8]; 1 h): 30%; % Mortality after ([8]; 2 h): 20%; % Mortality after ([8]; 4 h): 20%; % Mortality after ([8]; 1 d): 60%
CCOC(=O)CC(SP(=S)(OC)OC)C(=O)OCC (stereo not drawn) [malathion] | Intermediate (classified as “INTERMEDIATE” when the Log P value is between about 2.0 and about 4.0) | 2.7 | 
O=C(NC(=O)c1c(F)cccc1F)Nc1cc(Cl)c(OC(F)(F)C(F)C(F)(F)F)c(Cl)c1F (stereo not drawn) [noviflumuron] | Fast (classified as “FAST” when it has a Log P value of about >4.0) | 4.9 | 
CC(COc1ccc(Oc2ccccc2)cc1)Oc1ccccn1 (stereo not drawn) [pyriproxifen] | Fast (classified as “FAST” when it has a Log P value of about >4.0) | 5.4 | 
CC(C)=CC1C(C(=O)OCc2coc(Cc3ccccc3)c2)C1(C)C (stereo not drawn) [resmethrin] | Fast (classified as “FAST” when it has a Log P value of about >4.0) | 5.4 | toxicity / efficacy of the substance alone (summary in words) (Aedes aegypti mosquito): did not provide mosquito knockdown
CCC(C)(C)C(=O)OC1=C(c2ccc(Cl)cc2Cl)C(=O)OC12CCCCC2 [spirodiclofen] | Fast (classified as “FAST” when it has a Log P value of about >4.0) | 5.8 | 
CCNS(=O)(=O)C(F)(F)C(F)(F)C(F)(F)C(F)(F)C(F)(F)C(F)(F)C(F)(F)C(F)(F)F [sulfluramid] | Fast (classified as “FAST” when it has a Log P value of about >4.0) | >6.8 | 
CCc1nn(C)c(C(=O)NCc2ccc(C(C)(C)C)cc2)c1Cl [tebufenpyrad] | Fast (classified as “FAST” when it has a Log P value of about >4.0) | 4.9 | 
N#C/N=C1\SCCN1Cc1ccc(Cl)nc1 [thiacloprid] | Slow (classified as “SLOW” when the compound has a Log P value of about <2.0) | 1.3 | 
CN1COCN(Cc2cnc(Cl)s2)/C1=N\[N+](=O)[O-] [thiamethoxam] | Slow (classified as “SLOW” when the compound has a Log P value of about <2.0) | 0.1 | 
CS/C(C)=N\OC(=O)N(C)SN(C)C(=O)O/N=C(\C)SC [thiodicarb] | Slow (classified as “SLOW” when the compound has a Log P value of about <2.0) | 1.6 | 
O=C(NC(=O)c1ccccc1Cl)Nc1ccc(OC(F)(F)F)cc1 [triflumuron] | Fast (classified as “FAST” when it has a Log P value of about >4.0) | 4.9 | 
CC1(C)C(C=C(Cl)Cl)C1C(=O)OC(C#N)c1ccc(F)c(Oc2ccccc2)c1 (stereo not drawn) [β-cyfluthrin, reference compound] | Fast (classified as “FAST” when it has a Log P value of about >4.0) | 5.9 | toxicity / efficacy of the substance alone (summary in words) ([2]; Argentine ant, treated glazed tile): extremely effective at killing the ants; toxicity / efficacy of the substance alone (summary in words) (Aedes aegypti mosquito): 100% knockdown, or nearly 100% knockdown even in the absence of the adjuvant
abamectin | Fast (classified as “FAST” when it has a Log P value of about >4.0) | 4.4 | 
pyrethrin | Fast (classified as “FAST” when it has a Log P value of about >4.0) | 4.3 | 
spinosad | Intermediate-Fast | 2.8-5.2 | 
spiromesifen | Fast (classified as “FAST” when it has a Log P value of about >4.0) | 4.6 | 
